From patent publication US3931143A, “Unsymmetrical aliphatic monoazo compounds” (priority 1971, dated 1976)
Where two headings read alike, the source gives them in different places.

Experiments:
[1] = for temperature of 10 hour half-life: in trichlorobenzene; for t1/2: trichlorobenzene; for 10 hr. t1/2 temp.: Table II, solvent not given
[2] = Stability in unsaturated polyester-styrene resin at room temperature; assay type: physicochemical; conditions: unsaturated polyester-styrene resin of Example III
Protocol: An unsaturated polyester resin was made by reacting maleic anhydride (1.0 mole), phthalic anhydride (1.0 mole), and propylene glycol (2.2 moles) until an acid number of 45-50 was obtained. To this was added hydroquinone at a 0.013% concentration. Seven parts of this unsaturated polyester was diluted with 3 parts of monomeric styrene to obtain a homogeneous blend having a viscosity of 13.08 poise and a specific gravity of 1.14.

rat = conditions: in rat; decomposition residue of AIBN; cited from earlier work
[3] = Solubility in petroleum / hydrocarbon / common organic solvents; conditions: even at temperatures as low as -20°C
[4] = Thermal decomposition half-life in odorless mineral spirits; assay type: physicochemical
[5] = Preliminary toxicological studies compared with AIBN
Source text: In general, the new compositions of the present invention eliminate these problems. The tertiary-(alkyl, cycloalkyl, bicycloalkyl or aralkyl) group on the one side of the azo function lowers the melting point of these compounds so that most of them are liquids or low melting solids which can be handled in the melted state. In addition, this tertiary group increases the solubility of these azos so that most of them are completely miscible with the common organic solvents including petroleum hydrocarbons. Thus, no dusting, metering, incorporating, mixing, and dispersing problems are encountered in using these new compositions. […] The less toxic nature of the new compositions coupled with their liquid and high solubility properties allows them to be used in many applications where AIBN cannot be used.

[6] = Thermal decomposition half-life in water; assay type: physicochemical

| Structure (SMILES) | temperature of 10 hour half-life [1] | further results |
| --- | --- | --- |
| CC(C)(C#N)N=NC(C)(C)c1ccccc1 [Example XII, 2-t-Cumylazo-2-cyanopropane] | 50 °C |  |
| CC(C)(C)N=NC1(C#N)CCCCCCC1 [Example 1-t-Butylazo-1-cyanocyclooctane, 1-t-Butylazo-1-cyanocyclooctane] | approximately 55 °C |  |
| CCC(C)(C)N=NC1(C#N)CCCCC1 [XV, 1-t-Amylazo-1-cyanocyclohexane] | approximately 94 °C |  |
| CC1(N=NC2(C#N)CCCCC2)CCCCC1 [LXII, 1-t-(Methylcyclohexyl)azo-1-cyanocyclohexane] | approximately 100 °C |  |
| CC(C)(C)N=NC1(C#N)CCCCCC1 [Example 1-t-Butylazo-1-cyanocycloheptane, 1-t-Butylazo-1-cyanocycloheptane] | approximately 68 °C |  |
| CC(C)(C)N=NC1(C#N)CCCCC1 [Example V, 1-t-Butylazo-1-cyanocyclohexane] | 96 °C | t1/2 ([1]; 96.3 °C): 10.0 h; t1/2 ([1]; 100 °C): 6.7 h; t1/2 ([1]; 110 °C): 2.3 h; t1/2 ([1]; 120 °C): 0.75 h |
| CC(C)(N=NC1(C#N)CCCCC1)c1ccccc1 [Example LVI, 1-t-Cumylazo-1-cyanocyclohexane] | approximately 62.5 °C |  |
| CC(C)CC(C#N)(CC(C)C)N=NC(C)(C)C [Example VII, 4-t-Butylazo-4-cyano-2,6-dimethylheptane] | 61 °C |  |
| CC(C)(C)N=NC(C)(C#N)C1CC1 (stereo not drawn) [1-t-Butylazo-1-cyano-1-cyclopropylethane] | 62 °C |  |
| CCC(C)(C)N=NC(C)(C)C#N [XIV, 2-t-Amylazo-2-cyanopropane] | 79 °C |  |
| CC(C)CCC(C)(C#N)N=NC(C)(C)C (stereo not drawn) [2-t-Butylazo-2-cyano-5-methylhexane] | approximately 78 °C |  |
| CCCCCCC(C)(C#N)N=NC(C)(C)C (stereo not drawn) [LI, 2-t-butylazo-2-cyanooctane] |  | 10 hr. t1/2 temp. [1]: 79 °C |
| CC(C)(C)N=NC(C)(C#N)COC(=O)C(C)(C)C (stereo not drawn) [2-t-Butylazo-2-cyano-1-pivaloyloxypropane] | approximately 75 °C |  |
| CC1CC(C)(C)CC(C#N)(N=NC(C)(C)C)C1 (stereo not drawn) [Example VIII, 1-t-Butylazo-1-cyano-3,3,5-trimethylcyclohexane] | 78 °C |  |
| CC(C)(C)N=NC1(C#N)C(C)(C)C(=O)C1(C)C [XLIII, 3-t-butylazo-3-cyano-2,2,4,4-tetramethylcyclobutanone] |  | 10 hr. t1/2 temp. [1]: 115 °C |
| CC(C)CC(C)(C#N)N=NC(C)(C)c1ccccc1 (stereo not drawn) [Example LVII, 2-t-Cumylazo-2-cyano-4-methylpentane] | approximately 33 °C |  |
| CC(C)CC(C)(C#N)N=NC(C)(C)C (stereo not drawn) [Example XXXII, 2-t-Butylazo-2-cyano-4-methylpentane] | approximately 70 °C | period stable in the resin [2]: exceeding 1 month |
| CC(C)(C)CC(C)(C#N)N=NC(C)(C)C (stereo not drawn) [XLI, 2-t-butylazo-2-cyano-4,4-dimethylpentane] |  | 10 hr. t1/2 temp. [1]: 52 °C |
| CC(C)(C)N=NC(C)(C)C(N)=NO [2-t-Butylazo-2-methylpropionamidoxime] | approximately 90 °C |  |
| CC(C)(C#N)C(C)(C)C#N [2,2,3,3-tetramethylsuccinonitrile] |  | LD50 (rat): 30 mg/kg |
| CC(C)(C)N=NC(C)(C#N)COC(=O)c1ccccc1 (stereo not drawn) [2-t-Butylazo-2-cyano-1-benzoyloxypropane] | approximately 77 °C |  |
| CC(C)C(=O)OCC(C)(C#N)N=NC(C)(C)C (stereo not drawn) [2-t-Butylazo-2-cyano-1-isobutyroyloxypropane] | approximately 79 °C |  |
| CC(C)(C)N=NC(C)(C)C(N)=O [Example LXIV, 2-t-Butylazo-2-carbamylpropane] | 110 °C |  |
| CC(C)(C)N=NC(C)(C#N)c1ccccc1 (stereo not drawn) [XLII, 1-t-butylazo-1-cyano-1-phenylethane] |  | 10 hr. t1/2 temp. [1]: ~ 30 °C |
| CCC(C)(C#N)N=NC(C)(C)C (stereo not drawn) [Example VI, 2-t-Butylazo-2-cyanobutane] | around 80 °C | solubility in hydrocarbon solvents [3]: very soluble; temperature of 10 hour half-life [4]: around 82 °C |
| CC(C)(C)N=NC(C)(C)C#N [Example I, 2-t-Butylazo-2-cyanopropane] | 79 °C | toxicity compared with AIBN [5]: significantly less toxic than AIBN; t1/2 ([1]; 70 °C): 40.5 h; t1/2 ([1]; 78.8 °C): 10.0 h; t1/2 ([1]; 90 °C): 2.0 h; t1/2 ([1]; 100 °C): 0.54 h; t1/2 ([1]; 110 °C): 0.20 h; temperature of 10 hour half-life [4]: 86 °C |
| COC(C)(C)CC(C)(C#N)N=NC(C)(C)C (stereo not drawn) [Example XXXIV, 2-t-Butylazo-2-cyano-4-methoxy-4-methylpentane] | approximately 55 °C |  |
| CC(C)(C)N=NC1(C(N)=O)CCCCC1 [LXIII, 1-t-Butylazo-1-carbamylcyclohexane] | 111 °C |  |
| CC(C)(C)N=NC(C)(C#N)CCC(=O)O (stereo not drawn) [Example X, 4-t-Butylazo-4-cyanovaleric Acid] | 76 °C | temperature of 10 hour half-life [6]: 73 °C |
| CC(C)(C)N=NC(C)(C#N)C(C)(C)C (stereo not drawn) [IX, 2-t-Butylazo-2-cyano-3,3-dimethylbutane] | 80 °C |  |
